Assay results: PubChem BioAssay AID330 (DTP/NCI, 2004)
Several values for one entry are separate records, joined by “and”; a condition that tells them apart may be missing. Equal entries are not always repeated. Toxic doses and inconclusive results are not listed.

Test system: P388 leukemia ip, CD2F1 mice, survival T/C
Test: NCI In Vivo Anticancer Drug Screen. Data for tumor model P388 Leukemia (intraperitoneal) in CD2F1 (CDF1) mice
Conditions: endpoint: median survival time, higher = longer survival
In short: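 Mice carrying the transplanted tumor received test compound or vehicle. Survival was recorded in each group, and the value is the treated-group measurement divided by that of the vehicle-treated control group.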

[1] = dose: 12.5 mg/kg/injection, schedule: Q01DX009 (ip), vehicle: saline with Tween-80
[2] = dose: 25.0 mg/kg/injection, schedule: Q01DX009 (ip), vehicle: saline with Tween-80
[3] = dose: 50.0 mg/kg/injection, schedule: Q01DX009 (ip), vehicle: saline with Tween-80
[4] = dose: 60.0 mg/kg/injection, schedule: Q01DX005 (ip), vehicle: saline with Tween-80
[5] = dose: 120.0 mg/kg/injection, schedule: Q01DX005 (ip), vehicle: saline with Tween-80
[6] = dose: 240.0 mg/kg/injection, schedule: Q01DX005 (ip), vehicle: saline with Tween-80

`O=c1oc(-c2ccccc2O)ns1` was tested, and the T/C (dose: 100.0 mg/kg/injection, schedule: Q01DX009 (ip), vehicle: Klucel (hydroxypropylcellulose) (HPC)) was 98 % of control, the T/C (dose: 200.0 mg/kg/injection, schedule: Q01DX009 (ip), vehicle: Klucel (hydroxypropylcellulose) (HPC)) was 102 % of control and the T/C (dose: 400.0 mg/kg/injection, schedule: Q01DX009 (ip), vehicle: Klucel (hydroxypropylcellulose) (HPC)) was 97 % of control.
`C/C(CCCC(C)(C)C(=O)O)=N/Nc1ccc([N+](=O)[O-])cc1[N+](=O)[O-]` was tested, and the T/C [1] was 104 % of control, the T/C [2] was 100 % of control and the T/C [3] was 92 % of control and 95 % of control.
`Fc1ccc(CSC(=S)Nc2cccc(C(F)(F)F)c2)cc1` was tested, and the T/C (dose: 50.0 mg/kg/injection, schedule: Q01DX009 (ip), vehicle: suspension in saline) was 97 % of control and the T/C (dose: 100.0 mg/kg/injection, schedule: Q01DX009 (ip), vehicle: suspension in saline) was 90 % of control.
With `CN(C)CC[CH2][Sn]([CH3])([Br])[Br]` the T/C (dose: 1.56 mg/kg/injection, schedule: Q01DX009 (ip), vehicle: saline) was 100 % of control and 101 % of control.
In the case of `CC(=O)OC1CC23COC(=O)C4OC45CCO/C(=C/C/C=C\C(=O)OC4C[C@@H](OC2C=C1C)[C@@]1(CO1)[C@]43C)C5O` (some centres undefined), the T/C (dose: 0.32 mg/kg/injection, schedule: Q01DX009 (ip), vehicle: Klucel (hydroxypropylcellulose) (HPC)) was 100 % of control, the T/C (dose: 125.0 micrograms/kg/injection, schedule: Q01DX009 (ip), vehicle: Klucel (hydroxypropylcellulose) (HPC)) was 110 % of control and the T/C (dose: 250.0 micrograms/kg/injection, schedule: Q01DX009 (ip), vehicle: Klucel (hydroxypropylcellulose) (HPC)) was 118 % of control. For the same compound, the T/C (dose: 1000.0 micrograms/kg/injection, schedule: Q01DX009 (ip), vehicle: Klucel (hydroxypropylcellulose) (HPC)) was 152 % of control.
For `CCCCC1(C(O)CC)Sc2ccccc2N1C` (centres undefined), the T/C [4] was 100 % of control, the T/C [5] was 101 % of control and the T/C [6] was 110 % of control.
With `O=[N+]([O-])c1ccc(-c2sc(-c3ccccc3)nc2O)cc1` the T/C [1] was 100 % of control, the T/C [2] was 98 % of control and the T/C [3] was 91 % of control and 94 % of control. The T/C (dose: 200.0 mg/kg/injection, schedule: Q01DX009 (ip), vehicle: saline with Tween-80) was 88 % of control.
With `O=C1C2C3C=CC(C2C(=O)N1CO)C1C2C(=O)N(CO)C(=O)C2C31` (centres undefined) the T/C (dose: 12.5 mg/kg/injection, schedule: Q01DX009 (ip), vehicle: water) was 105 % of control, the T/C (dose: 25.0 mg/kg/injection, schedule: Q01DX009 (ip), vehicle: water) was 157 % of control and the T/C [3] was 195 % of control. For the same compound, the T/C (dose: 50.0 mg/kg/injection, schedule: Q01DX009 (ip), vehicle: water) was 208 % of control.
With `Nc1nc(F)nc2c1ncn2CC(O)CO` (centres undefined) the T/C (dose: 50.0 mg/kg/injection, schedule: Q01DX005 (ip), vehicle: distilled water + alcohol) was 100 % of control, the T/C (dose: 100.0 mg/kg/injection, schedule: Q01DX005 (ip), vehicle: distilled water + alcohol) was 101 % of control and the T/C (dose: 200.0 mg/kg/injection, schedule: Q01DX005 (ip), vehicle: distilled water + alcohol) was 95 % of control.
`O=S(=O)(CS(=O)(=O)c1ccc(Cl)c(Cl)c1)c1ccc(Cl)c(Cl)c1` was tested, and the T/C (dose: 60.0 mg/kg/injection, schedule: Q01DX005 (ip), vehicle: Klucel + Tween-80) was 94 % of control and the T/C (dose: 120.0 mg/kg/injection, schedule: Q01DX005 (ip), vehicle: Klucel + Tween-80) was 102 % of control.
With `N=C(N)SCC(=O)Nc1nc(NC(=O)CSC(=N)N)nc(NC(=O)CSC(=N)N)n1` the T/C (dose: 100.0 mg/kg/injection, schedule: Q04DX002 (ip), vehicle: saline) was 101 % of control, the T/C (dose: 200.0 mg/kg/injection, schedule: Q04DX002 (ip), vehicle: saline) was 99 % of control and the T/C (dose: 400.0 mg/kg/injection, schedule: Q04DX002 (ip), vehicle: saline) was 100 % of control.
`COc1cc2c(cc1[N+](=O)[O-])C(=O)CCCC2` was tested, and the T/C (dose: 100.0 mg/kg/injection, schedule: Q01DX009 (sc), vehicle: olive oil, sesame oil, peanut oil) was 104 % of control, the T/C (dose: 200.0 mg/kg/injection, schedule: Q01DX009 (sc), vehicle: olive oil, sesame oil, peanut oil) was 100 % of control and the T/C (dose: 400.0 mg/kg/injection, schedule: Q01DX009 (sc), vehicle: olive oil, sesame oil, peanut oil) was 107 % of control.
In the case of `C[N+](C)(C)N`, the T/C (dose: 25.0 mg/kg/injection, schedule: Q01DX009 (ip), vehicle: saline) was 102 % of control, the T/C (dose: 50.0 mg/kg/injection, schedule: Q01DX009 (ip), vehicle: saline) was 100 % of control and the T/C (dose: 100.0 mg/kg/injection, schedule: Q01DX009 (ip), vehicle: saline) was 100 % of control.
With `CCCCCCCCCCCC#N` the T/C (dose: 100.0 mg/kg/injection, schedule: Q04DX003 (ip), vehicle: saline) was 108 % of control, the T/C (dose: 200.0 mg/kg/injection, schedule: Q04DX003 (ip), vehicle: saline) was 104 % of control and the T/C (dose: 400.0 mg/kg/injection, schedule: Q04DX003 (ip), vehicle: saline) was 116 % of control.
With `CC1COC(C)(C)P(c2ccccc2)C1` (centres undefined) the T/C [4] was 102 % of control, the T/C [5] was 105 % of control and the T/C [6] was 106 % of control.
